Structures are written as SMILES.

Consider eleven molecules from patent US7141603B2, “Antitumor agents” (The Regents of The University California, priority 1999, dated 2006).

In data set [1] the test system is HL60 (myeloid leukemia cells). The data set can be described thus: Test A in vitro cytotoxicity, 2 hour exposure, [3H]-thymidine incorporation. Particulars: read-out: 2 hour IC50 HL60, mean ± 1 standard deviation. The class given is cell-based. The procedure: (§1) To assess cytotoxic effects, various concentrations of compounds of the invention were added to cultures of MV522 (human lung carcinoma cell line), HL60 (myeloid leukemia cells), and 8392 (B-cell leukemia/lymphoma) cells for 48 hours, then cell growth/viability was determined by trypan blue exclusion. As an alternative to 48 hour continuous exposure studies, cells were plated in liquid culture in 96 well plates, exposed to various concentrations of compounds of the invention for 2 hours, pulsed with [^3H]-thymidine for one to two hours and harvested onto filter papers. The filter papers were added to vials containing scintillation fluid and residual radioactivity determined in a beta (scintillation) counter.
(§2) Values are reported as mean±1 standard deviation; units are nanomoles per liter; and NT signifies not tested.

Data set [2] has as its system MV522 (human lung carcinoma cell line). Described as above. The class given is cell-based. Particulars: read-out: 2 hour IC50 MV522, mean ± 1 standard deviation. How it is done:
as §1, §2

The subject of data set [3] is MV522 lung carcinoma xenograft. The data set can be described thus: Test B in vivo MV522 lung carcinoma xenograft. The settings on record: for MTD reached in Test B: daily IP for 5 consecutive days, MV522 xenograft mice; for relative tumor weight Wt/Wi Day 17 / relative tumor weight Wt/Wi Day 24 / relative tumor weight Wt/Wi Day 31: i.p. QD×5 on days 10-14, day ten = 1.0, dose: 1 14 mg/kg, 2 35 mg/kg, 13 32 mg/kg, 14 28 mg/kg. The text has this: Several representative compounds of the invention were chosen for in vivo studies. […] Drug therapy was started 10 days after inoculation on a daily basis via IP route for 5 consecutive days. The animals were monitored for 3 weeks after start of therapy.
BALB/c nu/nu 4-week old female mice weighing 18–22 g were obtained from Simonsen, Inc. (Gilroy, Calif.) and maintained in the athymic mouse colony of the University of California (San Diego, Calif.) under pathogen free conditions using HEPA filter hoods. Animals were provided with sterilized food and water ad libitum in groups of 5 in plastic cages vented with polyester fiber filter covers. Clean, sterilized gowns, glove, face masks, and shoe and hood covers were worn by all personnel handling the animals. All studies were conducted in accordance with guidelines of the NIH “Guide for Care and Use of Animals” and approved by the University Institutional Animal Care and Use Committee (Protocol 3-006-2)
The MV522 lung carcinoma line used for xenograft studies was derived as described by Kelner et al. (Anticancer Res., 15: 867–872; 873–878 (1995)) and maintained in antibiotic-free RPMI 1640 (Mediatech, Herndon, Va.) supplemented with 10% fetal bovine serum and 2 mM glutamine in 37° C. humidified carbon dioxide incubator.
Each animal was earmarked and followed individually throughout the experiments. Mice received s.c. injections of the parental cell line MV522 using 10 million cells/inoculation over the shoulder. Ten days after s.c. implantation of the MV522 cells, when s.c. tumors were approximately 3×3 mm in size, animals received the desired drug and dosage. The effect of the compound on life span was calculated from median survival.
Although MV522 cells kill mice by metastases, primary s.c. tumor growth over the shoulder was monitored starting on the first day of treatment and at weekly intervals thereafter. Tumor size was measured in two perpendicular diameters. Tumor weights were estimated according to the formula w=(width)^2×length/2). Relative weights (RW) were calculated to standardized variability in tumor size among test groups at initiation of treatment using the formula RW=Wt/wi, where Wi is the tumor weight for a given animal at beginning of drug treatment and Wt is tumor weight at a subsequent time. Animals were necropsied, and organs were examined for evidence of metastases.
Comparison of survival curves between groups of animals was by the method of Kaplan and Meier. For comparison of relative tumor weights between multiple groups of animals, ordinary ANOVA followed by Tukey-Kramer multiple Comparison post ANOVA analysis was performed (Kelner et al. (Anticancer Res., 15: 867–872; 873–878 (1995)). Probability values (p) less than 0.05 were considered statistically significant.
Data was collected using eight animals in the control studies and four animals in each compound study. Values represent relative tumor weight or Wt/Wi (day ten by definition is 1.0). Drug was administered i.p. on days 10, 11, 12, 13, and 14 (QD×5 days).

Data set [4] in a line: Tolerated dose / toxicity on administration. Particulars: chronically administered at 35 mg/kg. The source says: As one skilled in the art would recognize, the amount can be varied depending on the method of administration.
For data set [5], the system named is 8392 (B-cell leukemia/lymphoma) cells. The data set can be described thus: Test A in vitro cytotoxicity, 2 hour exposure, [3H]-thymidine incorporation. Particulars: read-out: 2 hour IC50 8392, mean ± 1 standard deviation. The class given is cell-based. The procedure:
as §1, §2

Another data set concerns Dunning leukemia. The settings on record: rats with Dunning leukemia; cited from earlier work.
A further data set has as its system solid tumor systems. Particulars: cited from earlier work.

On to `COCC1=C(CO)C=C2C(=O)C(C)(O)C3(CC3)C(C)=C21` (centres unmarked) [Compound 8], for which the IC50 in data set [1] and in data set [2] was more than 80 µM throughout.
As for `CC1=C2C(=CC(CO)=C2CO)C(=O)C(C)(O)C12CC2` (centres unmarked) [Compound 2], the IC50 in data set [2] turned out to be 11.3 µM. In data set [3], the “MTD reached in Test B” value is listed as “not”, the “relative tumor weight Wt/Wi Day 17” value is 2.1 ± 0.2, the “relative tumor weight Wt/Wi Day 24” value is given as 3.3 ± 0.3 and the “relative tumor weight Wt/Wi Day 31” value is 4.0 ± 0.9. Besides, the “toxicity on chronic administration” value in data set [4] is on record as “without toxicity”.
As for `CC1=C2C=C(CO)C=C2C(=O)C(C)(O)C12CC2` (centres unmarked) [Compound 1], the IC50 in data set [5] turned out to be 37 µM. In data set [3], the “MTD reached in Test B” value was “not”, the “relative tumor weight Wt/Wi Day 17” value stood at 1.4 ± 0.7, the “relative tumor weight Wt/Wi Day 24” value was found to be 7.0 ± 1.3 and the “relative tumor weight Wt/Wi Day 31” value turned out to be 11.8 ± 3.0.
Consider `COCC1=CC2=C(C)C3(CC3)C(C)(O)C(=O)C2=C1` (centres unmarked) [Compound 7], for which the IC50 in data set [1] was 6 µM.
`CC(=O)N[C@@H](CSCC1=C(C)C=C2C(=O)C(C)(O)C3(CC3)C(C)=C21)C(=O)O` (some centres unmarked) [Compound 13]: in data set [2], the IC50 came out at 10 µM. For the same molecule, in data set [3], the “relative tumor weight Wt/Wi Day 17” value was determined as 2.3 ± 0.5, the “relative tumor weight Wt/Wi Day 24” value was 4.1 ± 0.8 and the “relative tumor weight Wt/Wi Day 31” value was determined as 4.7 ± 1.5.
In the case of `CC(=O)OCC1=CC2=C(C)C3(CC3)C(C)(O)C(=O)C2=C1` (centres unmarked) [Compound 3], the IC50 in data set [5] was 62 µM; in data set [1], 15.6 µM; in data set [2], 19.6 µM.
In the case of `CC(=O)N[C@@H](CSCC1=C(C)C=C2C(=O)C(C)(O)C3(CC3)C(C)=C21)C(=O)N[C@H](C)c1ccccc1` (some centres unmarked) [Compound 14], the IC50 in data set [2] was 3.05 µM. Also, in data set [3], the “relative tumor weight Wt/Wi Day 17” value amounted to 3.2 ± 0.6, the “relative tumor weight Wt/Wi Day 24” value came out at 4.1 ± 0.8 and the “relative tumor weight Wt/Wi Day 31” value came out at 6.0 ± 1.8.
`CC(=O)OCC1=C(CO)C=C2C(=O)C(C)(O)C3(CC3)C(C)=C21` (centres unmarked) [Compound 4]: the IC50 is more than 40 µM in data set [1] and 20.4 µM in data set [2].
`CC(=O)OCC1=C(COC(C)=O)C2=C(C)C3(CC3)C(C)(O)C(=O)C2=C1` (centres unmarked) [Compound 5]: the IC50 in data set [1] was 38.4 µM.
Turning to `COCC1=C(COC)C2=C(C)C3(CC3)C(C)(O)C(=O)C2=C1` (centres unmarked) [Compound 9], the IC50 in data set [1] was 49.8 µM; in data set [2] it was more than 50 µM.
Consider `CC1=C2C(=CC(C)(C)[C@@H]2O)C(=O)[C@](C)(O)C12CC2` [Illudin M], for which the life span result in the data set on Dunning leukemia is “significantly increased”. Also, the therapeutic index result in the data set with solid tumor systems is reported as “low”.
